Test results as given in PubChem BioAssay AID651866 (The Scripps Research Institute Molecular Screening Center, 2012).

Target: Protein-arginine deiminase type-3 (Homo sapiens) (UniProt Q9ULW8)
Assay: PubChem AID 651866
Details: recombinant PAD3, citrulline colorimetric, time-dependent inactivation; active compounds read high

Protein-arginine deiminase type-3 (Homo sapiens), sequence (Q9ULW8 whole entry, looked up): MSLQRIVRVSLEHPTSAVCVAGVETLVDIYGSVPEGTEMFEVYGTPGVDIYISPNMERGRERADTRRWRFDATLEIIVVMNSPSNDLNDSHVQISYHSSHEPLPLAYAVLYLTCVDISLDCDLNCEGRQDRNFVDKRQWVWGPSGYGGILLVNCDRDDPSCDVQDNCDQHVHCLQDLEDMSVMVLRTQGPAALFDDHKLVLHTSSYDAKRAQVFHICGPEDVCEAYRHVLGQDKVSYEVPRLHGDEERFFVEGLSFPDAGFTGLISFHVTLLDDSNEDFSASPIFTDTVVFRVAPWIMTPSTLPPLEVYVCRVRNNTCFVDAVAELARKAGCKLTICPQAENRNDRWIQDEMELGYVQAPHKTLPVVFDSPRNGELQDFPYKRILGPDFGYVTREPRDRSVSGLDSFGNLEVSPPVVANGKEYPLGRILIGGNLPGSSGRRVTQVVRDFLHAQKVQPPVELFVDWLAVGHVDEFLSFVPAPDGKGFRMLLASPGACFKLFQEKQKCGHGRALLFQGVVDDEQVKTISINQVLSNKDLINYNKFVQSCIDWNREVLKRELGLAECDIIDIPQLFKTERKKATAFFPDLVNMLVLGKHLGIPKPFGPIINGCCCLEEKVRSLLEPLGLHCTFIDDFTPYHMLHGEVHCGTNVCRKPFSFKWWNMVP

kinact/KI: 31.7 M⁻¹ s⁻¹
SMILES: NC1=CC(=O)c2ccc(-c3cccc(C(=O)O)n3)nc2C1=O
